Assay results from patent US9200017B2, “Multimodal imaging of fibrin” (The General Hospital Corporation, priority 2009, dated 2015).

Molecular target: T1, Thrombus (Rattus norvegicus, UniProt P02680+P06399+P14480)
T1 construct: thrombin cleaves fibrinopeptides on fibrinogen resulting in an end-to-end polymerization to give the polymer fibrin; A day old autologous blood clot was injected into the right internal carotid artery; from tissue; host or cells: autologous blood clot in the right internal carotid artery of Wistar rats
T1 sequence (P06399 37-550 isoform P06399-2 limits assumed): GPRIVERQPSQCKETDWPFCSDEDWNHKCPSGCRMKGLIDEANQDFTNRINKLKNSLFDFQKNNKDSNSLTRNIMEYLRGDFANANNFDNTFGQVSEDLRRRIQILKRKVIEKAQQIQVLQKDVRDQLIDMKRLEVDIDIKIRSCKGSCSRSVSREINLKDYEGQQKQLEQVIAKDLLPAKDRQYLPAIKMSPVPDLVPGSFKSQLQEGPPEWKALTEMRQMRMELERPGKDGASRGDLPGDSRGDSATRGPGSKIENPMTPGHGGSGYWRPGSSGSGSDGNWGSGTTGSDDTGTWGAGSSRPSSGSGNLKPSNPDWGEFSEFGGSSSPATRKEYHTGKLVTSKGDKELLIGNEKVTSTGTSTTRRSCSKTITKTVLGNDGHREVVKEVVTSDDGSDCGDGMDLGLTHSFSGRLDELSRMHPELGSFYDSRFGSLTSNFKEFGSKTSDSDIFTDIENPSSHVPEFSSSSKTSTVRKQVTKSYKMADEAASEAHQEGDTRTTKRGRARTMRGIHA
T1 sequence (P14480 33-479 limits assumed): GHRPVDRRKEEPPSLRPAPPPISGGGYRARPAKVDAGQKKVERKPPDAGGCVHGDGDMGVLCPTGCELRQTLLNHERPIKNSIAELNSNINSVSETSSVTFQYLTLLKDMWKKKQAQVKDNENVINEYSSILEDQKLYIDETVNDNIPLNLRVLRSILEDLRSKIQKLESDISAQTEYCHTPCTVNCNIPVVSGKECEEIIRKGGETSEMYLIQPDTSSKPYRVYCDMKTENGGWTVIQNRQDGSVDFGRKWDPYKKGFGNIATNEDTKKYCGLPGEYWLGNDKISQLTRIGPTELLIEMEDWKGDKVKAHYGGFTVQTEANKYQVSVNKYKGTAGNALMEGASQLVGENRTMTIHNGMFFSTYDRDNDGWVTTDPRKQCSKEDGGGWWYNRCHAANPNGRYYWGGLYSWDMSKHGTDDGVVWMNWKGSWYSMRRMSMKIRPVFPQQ
T1 sequence (P02680 26-437 isoform P02680-2 limits assumed): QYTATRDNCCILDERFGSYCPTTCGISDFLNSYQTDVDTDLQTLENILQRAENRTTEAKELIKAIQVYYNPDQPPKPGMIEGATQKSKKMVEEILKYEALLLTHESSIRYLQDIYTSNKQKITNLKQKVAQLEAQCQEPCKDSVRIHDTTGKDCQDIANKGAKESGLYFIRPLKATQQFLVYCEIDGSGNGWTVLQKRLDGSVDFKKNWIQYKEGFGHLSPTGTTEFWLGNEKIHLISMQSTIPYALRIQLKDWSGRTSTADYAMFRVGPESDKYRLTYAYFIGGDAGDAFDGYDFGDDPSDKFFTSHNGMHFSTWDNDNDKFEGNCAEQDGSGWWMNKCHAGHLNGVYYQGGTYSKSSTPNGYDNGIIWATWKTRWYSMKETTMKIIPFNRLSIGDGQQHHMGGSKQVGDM
Type: in vivo
Conditions: ex vivo, 2 h post-injection
Description: All animal studies were approved by the Subcommittee on Research Animal Care at Massachusetts General Hospital. The occlusive thrombus model was described previously (Zhang R L, Chopp M, Zhang Z G, Jiang Q, and Ewing J R., Brain Res. 1997 766(1-2):83-92). Briefly, male Wistar rats (350-400 g, n=8; Charles River Laboratories, Wilmington, Mass.) were anaesthetized with isoflurane (1-2% in 70% N2O and 30% O2) and body temperature was kept at 37.5° C. A day old autologous blood clot was injected into the right internal carotid artery (ICA) at the level of the middle cerebral artery (MCA). The femoral vein was cannulated for intravenous delivery of the contrast agent. […]
The ipsilateral (containing the thrombus) and contralateral ICA and MCA, cerebral hemispheres, blood, urine, intraabdominal organs, rectus femoris muscle and femur bone were collected from all the animals, weighed and radioactivity measured on a gamma counter. The percent of the injected dose per gram of tissue (% ID/g) was calculated by dividing the counts of ^64Cu/g of tissue by the total counts of the injected dose, based on an aliquot of the injected dose, with correction for radioactive decay. Tissues were later homogenized in nitric acid and analyzed for Gd concentration by inductively coupled plasma-mass spectrometry (ICP-MS).

Substance: Gd3-EP-2104R-Cu [Compound 21]
- Concentration of 64Cu in thrombus relative to contralateral vessel, blood plasma, brain, or muscle (p<0.005): at least 4 fold
- Gd concentration in thrombus relative to contralateral vessel, blood plasma, brain, or muscle (ICP-MS, p<0.0001): over 6 fold
